# In the supplement of paper PMC10307832:
# What was measured:
# Experiment in all cases: relative viability (nuclei count vs DMSO), 5 days (fraction); higher = more cells survive
# ALW-II-49-7 + Trametinib = compound: Cc1ccc(C(=O)Nc2cccc(C(F)(F)F)c2)cc1Nc1cncc(C(N)=O)c1 [ALW-II-49-7] + CC(=O)Nc1cccc(-n2c(=O)n(C3CC3)c(=O)c3c(Nc4ccc(I)cc4F)n(C)c(=O)c(C)c32)c1 [Trametinib] (partner 0.02 µM)
# Procedure, shortened: (§1)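 The day after seeding in 1536-well plates, lung cancer cell lines were treated by pin tool with a single drug, or with a fixed anchor-drug dose together with five library-drug doses (not always all listed) in √10 steps. After 5 days, a combined fix-and-stain solution (final 0.05% Triton X-100, 1% formaldehyde, 1 ug/ml Hoechst) was added. Nuclei counted on 4× images gave relative viability as treated counts over vehicle counts, reported as the median of duplicate plates.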
# ALW-II-49-7 + OSI-027 = compound: Cc1ccc(C(=O)Nc2cccc(C(F)(F)F)c2)cc1Nc1cncc(C(N)=O)c1 [ALW-II-49-7] + COc1cccc2cc(-c3nc([C@H]4CC[C@H](C(=O)O)CC4)n4ncnc(N)c34)[nH]c12 [OSI-027] (partner 0.5 µM)
# Procedure, shortened: as §1
# Dasatinib + Phenformin = compound: Cc1nc(Nc2ncc(C(=O)Nc3c(C)cccc3Cl)s2)cc(N2CCN(CCO)CC2)n1 [Dasatinib] + N=C(N)NC(=N)NCCc1ccccc1 [Phenformin] (partner 250 µM)
# Procedure, shortened: as §1
# Dasatinib + Olaparib = compound: Cc1nc(Nc2ncc(C(=O)Nc3c(C)cccc3Cl)s2)cc(N2CCN(CCO)CC2)n1 [Dasatinib] + O=C(c1cc(Cc2n[nH]c(=O)c3ccccc23)ccc1F)N1CCN(C(=O)C2CC2)CC1 [Olaparib] (partner 8 µM)
# Procedure, shortened: as §1
Cell Line,relative viability (ALW-II-49-7 + Trametinib; first compound 0.08 µM),relative viability (ALW-II-49-7 + Trametinib; first compound 0.253 µM),relative viability (ALW-II-49-7 + Trametinib; first compound 0.8 µM),relative viability (ALW-II-49-7 + Trametinib; first compound 8 µM),relative viability (ALW-II-49-7 + OSI-027; first compound 0.08 µM),relative viability (ALW-II-49-7 + OSI-027; first compound 0.253 µM),relative viability (ALW-II-49-7 + OSI-027; first compound 0.8 µM),relative viability (ALW-II-49-7 + OSI-027; first compound 2.53 µM),relative viability (ALW-II-49-7 + OSI-027; first compound 8 µM),relative viability (Dasatinib + Phenformin; first compound 0.005 µM),relative viability (Dasatinib + Phenformin; first compound 0.01581 µM),relative viability (Dasatinib + Phenformin; first compound 0.05 µM),relative viability (Dasatinib + Phenformin; first compound 0.1581 µM),relative viability (Dasatinib + Phenformin; first compound 0.5 µM),relative viability (Dasatinib + Olaparib; first compound 0.005 µM),relative viability (Dasatinib + Olaparib; first compound 0.01581 µM),relative viability (Dasatinib + Olaparib; first compound 0.05 µM),relative viability (Dasatinib + Olaparib; first compound 0.1581 µM),relative viability (Dasatinib + Olaparib; first compound 0.5 µM),relative viability (ALW-II-49-7 + Trametinib; first compound 2.53 µM)
LOU-NH91,0.755,0.787,0.804,0.706,0.666,0.733,0.684,0.729,0.676,0.734,0.678,0.566,0.489,0.288,0.925,0.807,0.726,0.615,0.372,–
LU99A,–,0.622,0.62,0.399,0.293,0.288,0.282,0.282,0.294,0.845,–,0.888,0.752,0.472,0.283,0.259,0.265,0.188,0.166,0.374
LXF-289,0.604,0.715,0.681,0.626,0.697,0.901,0.846,0.81,0.735,0.543,0.512,0.414,0.34,0.0987,1.07,1.02,0.925,0.268,0.158,0.67
NCI-H23,0.434,0.371,0.448,0.37,0.52,0.492,0.476,0.562,0.475,0.841,0.752,0.929,0.655,0.607,0.359,0.301,0.307,0.297,0.282,0.37
NCI-H322M,0.484,0.533,0.506,0.515,0.54,0.469,0.444,0.447,0.406,0.604,0.61,0.443,0.206,0.195,0.707,0.575,0.492,0.322,0.244,0.472
NCI-H358,0.117,0.123,0.142,0.119,0.722,0.788,0.628,0.756,0.611,0.301,0.247,0.264,0.156,0.157,0.464,0.431,0.427,0.303,0.139,0.14
NCI-H441,0.41,0.494,0.381,0.443,0.657,0.57,0.867,0.48,0.466,0.921,0.912,0.862,0.547,0.401,0.532,0.529,0.519,0.387,0.309,0.69
NCI-H460,0.133,0.17,0.142,0.101,0.467,0.641,0.81,0.682,0.115,0.47,0.484,0.443,0.336,0.314,0.362,0.383,0.38,0.247,0.199,0.118
NCI-H520,0.62,0.661,0.53,0.519,0.258,0.249,0.25,0.242,0.262,0.481,0.339,0.255,0.181,0.179,0.335,0.244,0.237,0.127,0.16,0.552
NCI-H522,0.883,0.665,0.867,0.853,0.795,0.753,0.634,0.718,0.749,0.634,0.625,0.587,0.599,0.5,0.707,0.513,0.591,0.52,0.549,0.82
NCI-H596,0.684,0.786,0.769,0.912,0.777,0.749,0.589,0.624,0.776,0.728,0.52,0.712,0.44,0.402,0.685,0.575,0.525,0.517,0.466,0.791
NCI-H647,0.434,0.475,0.453,0.239,0.665,0.736,0.495,0.434,0.619,0.465,0.366,0.257,0.197,0.141,0.428,0.301,0.217,0.139,0.116,0.441
NCI-H650,0.876,1.16,0.993,0.929,0.519,0.509,0.511,0.419,0.391,0.496,0.438,0.433,0.375,0.317,0.395,0.357,0.415,0.392,0.263,0.996
NCI-H661,0.529,0.606,0.521,0.53,0.552,0.773,0.781,0.78,0.452,0.266,0.222,0.249,0.226,0.243,0.731,0.792,0.747,0.618,0.592,0.567
NCI-H727,0.393,0.378,0.354,0.365,0.688,0.611,0.429,0.527,0.511,0.399,0.461,0.375,0.262,0.235,0.74,0.603,0.654,0.618,0.288,0.357
NCI-H838,0.631,0.531,0.433,0.453,0.352,0.385,0.389,0.434,0.378,0.481,0.387,0.302,0.204,0.176,0.622,0.453,0.403,0.229,0.179,0.49
